Columns and labels:
Type in all cases: in vivo
[1] = system: Echinochloa oryzacola Vasing.; experiment: Test Example 1: herbicidal activity, application before weed generation in submerged conditions; conditions: Application herbicide amount 320 g/ha; Seventeenth Table
Outline: (§1)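 Water-diluted emulsion formulation is applied onto flood water (4 cm deep) covering alluvial soil on the day weed seeds are sown, after transplanting 2.5 leaf stage rice. Rates are expressed per hectare. Injury or control is graded 0–5 three weeks later.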

Monochoria vaginalis = experiment: as above; conditions: Application herbicide amount 320 g/ha; Seventeenth Table
Outline: as §1

Scirpus juncoides = experiment: as above; conditions: Application herbicide amount 320 g/ha; Seventeenth Table
Outline: as §1

[2] = system: transplanted Oryza sativa; experiment: Test Example 1: effect on crop, application before weed generation in submerged conditions; conditions: Application herbicide amount 320 g/ha; Seventeenth Table
Outline: as §1

Abutilon theophrasti = experiment: Test Example 4: herbicidal effect by application to foliage (diluvial soil, plastic box); conditions: Application herbicide amount 320 g/ha; foliage application
Outline: (§2)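 Greenhouse plants (25° C. to 30° C., 14 d, diluvial soil) receive a foliar spray of water-diluted emulsifiable formulation at defined g/ha. Grading after 3 weeks uses a six-step herbicidal-ratio scale, with 4 covering 70% to <90% and 1 covering 5% to <20%.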

Alopecurus myosuroides = experiment: as above; conditions: Application herbicide amount 320 g/ha; foliage application
Outline: as §2

Amaranthus retroflexus = experiment: as above; conditions: Application herbicide amount 320 g/ha; foliage application
Outline: as §2

Apera spica-venti. = experiment: as above; conditions: Application herbicide amount 320 g/ha; foliage application
Outline: as §2

Avena fatua = experiment: as above; conditions: Application herbicide amount 320 g/ha; foliage application
Outline: as §2

Chenopodium album = experiment: as above; conditions: Application herbicide amount 320 g/ha; foliage application
Outline: as §2

Digitaria ciliaris = experiment: as above; conditions: Application herbicide amount 320 g/ha; foliage application
Outline: as §2

[3] = system: Echinochloa crus-galli var. crus-galli; experiment: as above; conditions: Application herbicide amount 320 g/ha; foliage application
Outline: as §2

Galium spurium = experiment: as above; conditions: Application herbicide amount 320 g/ha; foliage application
Outline: as §2

Lolium multiflorum Lam. = experiment: as above; conditions: Application herbicide amount 320 g/ha; foliage application
Outline: as §2

Setaria viridis = experiment: as above; conditions: Application herbicide amount 320 g/ha; foliage application
Outline: as §2

Stellaria media = experiment: as above; conditions: Application herbicide amount 320 g/ha; foliage application
Outline: as §2

Veronica persica = experiment: as above; conditions: Application herbicide amount 320 g/ha; foliage application
Outline: as §2

[4] = system: Beta vulgaris ssp. vulgaris; experiment: Test Example 4: effect on crop by application to foliage (diluvial soil, plastic box); conditions: Application herbicide amount 320 g/ha; foliage application
Outline: as §2

Brassica campestris L. = experiment: as above; conditions: Application herbicide amount 320 g/ha; foliage application
Outline: as §2

Glycine max = experiment: as above; conditions: Application herbicide amount 320 g/ha; foliage application
Outline: as §2

Triticum aestivum = experiment: as above; conditions: Application herbicide amount 320 g/ha; foliage application
Outline: as §2

Zea mays = experiment: as above; conditions: Application herbicide amount 320 g/ha; foliage application
Outline: as §2

[5] = system: directly sowed Oryza sativa; experiment: as above; conditions: Application herbicide amount 320 g/ha; foliage application
Outline: as §2

SMILES	A: Echinochloa oryzicola Vasing. (herbicidal effect grade) [1]	C: Monochoria vaginalis (herbicidal effect grade) (Monochoria vaginalis)	B: Scirpus juncoides (herbicidal effect grade) (Scirpus juncoides)	a: transplanted Oryza sativa (effect on crop grade) [2]	M (Abutilon theophrasti) herbicidal effect grade (Abutilon theophrasti)	J (Alopecurus myosuroides) herbicidal effect grade (Alopecurus myosuroides)	N (Amaranthus retroflexus) herbicidal effect grade (Amaranthus retroflexus)	L (Apera spica-venti.) herbicidal effect grade (Apera spica-venti.)	I (Avena fatua) herbicidal effect grade (Avena fatua)	O (Chenopodium album) herbicidal effect grade (Chenopodium album)	F (Digitaria ciliaris) herbicidal effect grade (Digitaria ciliaris)	H (Echinochloa crus-galli var. crus-galli) herbicidal effect grade [3]	Q (Galium spurium) herbicidal effect grade (Galium spurium)	K (Lolium multiflorum Lam.) herbicidal effect grade (Lolium multiflorum Lam.)	G (Setaria viridis) herbicidal effect grade (Setaria viridis)	P (Stellaria media) herbicidal effect grade (Stellaria media)	R (Veronica persica) herbicidal effect grade (Veronica persica)	f (Beta vulgaris ssp. vulgaris) effect on crop grade [4]	g (Brassica campestris L.) effect on crop grade (Brassica campestris L.)	d (Glycine max) effect on crop grade (Glycine max)	also measured
O=C(Nc1nnco1)c1ccc(C(F)(F)F)n2c(N3CCOCC3)nnc12 [1-110]	5 (Herbicidal ratio of 90% or more (almost completely withered))	4 (Herbicidal ratio of 70% or more and less than 90%)	4 (Herbicidal ratio of 70% or more and less than 90%)	4 (Herbicidal ratio of 70% or more and less than 90%)	4 (Herbicidal ratio of 70% or more and less than 90%)	3 (Herbicidal ratio of 40% or more and less than 70%)	5 (Herbicidal ratio of 90% or more (almost completely withered))	3 (Herbicidal ratio of 40% or more and less than 70%)	4 (Herbicidal ratio of 70% or more and less than 90%)	5 (Herbicidal ratio of 90% or more (almost completely withered))	5 (Herbicidal ratio of 90% or more (almost completely withered))	5 (Herbicidal ratio of 90% or more (almost completely withered))	4 (Herbicidal ratio of 70% or more and less than 90%)	3 (Herbicidal ratio of 40% or more and less than 70%)	5 (Herbicidal ratio of 90% or more (almost completely withered))	5 (Herbicidal ratio of 90% or more (almost completely withered))	5 (Herbicidal ratio of 90% or more (almost completely withered))	5 (Herbicidal ratio of 90% or more (almost completely withered))	5 (Herbicidal ratio of 90% or more (almost completely withered))	4 (Herbicidal ratio of 70% or more and less than 90%)	e (Triticum aestivum) effect on crop grade (Triticum aestivum): 3 (Herbicidal ratio of 40% or more and less than 70%); c (Zea mays) effect on crop grade (Zea mays): 4 (Herbicidal ratio of 70% or more and less than 90%); b (directly sowed Oryza sativa) effect on crop grade [5]: 4 (Herbicidal ratio of 70% or more and less than 90%)
CCOc1nnc2c(C(=O)Nc3nnco3)ccc(C(F)(F)F)n12 [1-112]	3 (Herbicidal ratio of 40% or more and less than 70%)	2 (Herbicidal ratio of 20% or more and less than 40%)	3 (Herbicidal ratio of 40% or more and less than 70%)	0 (Herbicidal ratio of 5% or less (almost no effect))	3 (Herbicidal ratio of 40% or more and less than 70%)	0 (Herbicidal ratio of 5% or less (almost no effect))	4 (Herbicidal ratio of 70% or more and less than 90%)	0 (Herbicidal ratio of 5% or less (almost no effect))	0 (Herbicidal ratio of 5% or less (almost no effect))	5 (Herbicidal ratio of 90% or more (almost completely withered))	1 (Herbicidal ratio of 5% or more and less than 20%)	2 (Herbicidal ratio of 20% or more and less than 40%)	0 (Herbicidal ratio of 5% or less (almost no effect))	0 (Herbicidal ratio of 5% or less (almost no effect))	0 (Herbicidal ratio of 5% or less (almost no effect))	4 (Herbicidal ratio of 70% or more and less than 90%)	5 (Herbicidal ratio of 90% or more (almost completely withered))	5 (Herbicidal ratio of 90% or more (almost completely withered))	3 (Herbicidal ratio of 40% or more and less than 70%)	3 (Herbicidal ratio of 40% or more and less than 70%)	e (Triticum aestivum) effect on crop grade (Triticum aestivum): 0 (Herbicidal ratio of 5% or less (almost no effect)); c (Zea mays) effect on crop grade (Zea mays): 0 (Herbicidal ratio of 5% or less (almost no effect)); b (directly sowed Oryza sativa) effect on crop grade [5]: 0 (Herbicidal ratio of 5% or less (almost no effect))
Cc1nnc(NC(=O)c2ccc(C(F)(F)F)n3c(SCc4ccccc4)nnc23)o1 [1-113]	4 (Herbicidal ratio of 70% or more and less than 90%)	2 (Herbicidal ratio of 20% or more and less than 40%)	3 (Herbicidal ratio of 40% or more and less than 70%)	0 (Herbicidal ratio of 5% or less (almost no effect))	1 (Herbicidal ratio of 5% or more and less than 20%)	0 (Herbicidal ratio of 5% or less (almost no effect))	3 (Herbicidal ratio of 40% or more and less than 70%)	0 (Herbicidal ratio of 5% or less (almost no effect))	0 (Herbicidal ratio of 5% or less (almost no effect))	5 (Herbicidal ratio of 90% or more (almost completely withered))	1 (Herbicidal ratio of 5% or more and less than 20%)	2 (Herbicidal ratio of 20% or more and less than 40%)	0 (Herbicidal ratio of 5% or less (almost no effect))	0 (Herbicidal ratio of 5% or less (almost no effect))	0 (Herbicidal ratio of 5% or less (almost no effect))	4 (Herbicidal ratio of 70% or more and less than 90%)	3 (Herbicidal ratio of 40% or more and less than 70%)	3 (Herbicidal ratio of 40% or more and less than 70%)	0 (Herbicidal ratio of 5% or less (almost no effect))	0 (Herbicidal ratio of 5% or less (almost no effect))	e (Triticum aestivum) effect on crop grade (Triticum aestivum): 0 (Herbicidal ratio of 5% or less (almost no effect)); c (Zea mays) effect on crop grade (Zea mays): 0 (Herbicidal ratio of 5% or less (almost no effect)); b (directly sowed Oryza sativa) effect on crop grade [5]: 0 (Herbicidal ratio of 5% or less (almost no effect))
COc1ccc(CSc2nnc3c(C(=O)Nc4nnc(C)o4)ccc(C(F)(F)F)n23)cc1 [1-114]	3 (Herbicidal ratio of 40% or more and less than 70%)	0 (Herbicidal ratio of 5% or less (almost no effect))	2 (Herbicidal ratio of 20% or more and less than 40%)	0 (Herbicidal ratio of 5% or less (almost no effect))	2 (Herbicidal ratio of 20% or more and less than 40%)	0 (Herbicidal ratio of 5% or less (almost no effect))	3 (Herbicidal ratio of 40% or more and less than 70%)	0 (Herbicidal ratio of 5% or less (almost no effect))	0 (Herbicidal ratio of 5% or less (almost no effect))	5 (Herbicidal ratio of 90% or more (almost completely withered))	1 (Herbicidal ratio of 5% or more and less than 20%)	3 (Herbicidal ratio of 40% or more and less than 70%)	1 (Herbicidal ratio of 5% or more and less than 20%)	0 (Herbicidal ratio of 5% or less (almost no effect))	0 (Herbicidal ratio of 5% or less (almost no effect))	4 (Herbicidal ratio of 70% or more and less than 90%)	3 (Herbicidal ratio of 40% or more and less than 70%)	4 (Herbicidal ratio of 70% or more and less than 90%)	0 (Herbicidal ratio of 5% or less (almost no effect))	0 (Herbicidal ratio of 5% or less (almost no effect))	e (Triticum aestivum) effect on crop grade (Triticum aestivum): 0 (Herbicidal ratio of 5% or less (almost no effect)); c (Zea mays) effect on crop grade (Zea mays): 0 (Herbicidal ratio of 5% or less (almost no effect)); b (directly sowed Oryza sativa) effect on crop grade [5]: 0 (Herbicidal ratio of 5% or less (almost no effect))

— patent US9708314B2, “Heterocyclic amide compound” (NISSAN CHEMICAL INDUSTRIES, LTD., priority 2013, dated 2017)
